Drawing on patent publication US6455550B1, “N-alkanoylphenylalanine derivatives” (Hoffmann-La Roche Inc., priority 1997, dated 2002), this text covers IC50 and inhibition for 33 compounds.

The structures appear in SMILES notation.

The target of the first assay is T1, cell-surface VLA-4 (α4β1 integrin) on Ramos cells binding to immobilized VCAM-1 (Homo sapiens, UniProt P05556+P13612).
T1 construct: Ramos cells bearing cell-surface VLA-4; endogenous in cells; host or cells: Ramos cells (VLA-4); VCAM-1 purified from CHO cell culture media
T1 sequence (P13612 34-1032): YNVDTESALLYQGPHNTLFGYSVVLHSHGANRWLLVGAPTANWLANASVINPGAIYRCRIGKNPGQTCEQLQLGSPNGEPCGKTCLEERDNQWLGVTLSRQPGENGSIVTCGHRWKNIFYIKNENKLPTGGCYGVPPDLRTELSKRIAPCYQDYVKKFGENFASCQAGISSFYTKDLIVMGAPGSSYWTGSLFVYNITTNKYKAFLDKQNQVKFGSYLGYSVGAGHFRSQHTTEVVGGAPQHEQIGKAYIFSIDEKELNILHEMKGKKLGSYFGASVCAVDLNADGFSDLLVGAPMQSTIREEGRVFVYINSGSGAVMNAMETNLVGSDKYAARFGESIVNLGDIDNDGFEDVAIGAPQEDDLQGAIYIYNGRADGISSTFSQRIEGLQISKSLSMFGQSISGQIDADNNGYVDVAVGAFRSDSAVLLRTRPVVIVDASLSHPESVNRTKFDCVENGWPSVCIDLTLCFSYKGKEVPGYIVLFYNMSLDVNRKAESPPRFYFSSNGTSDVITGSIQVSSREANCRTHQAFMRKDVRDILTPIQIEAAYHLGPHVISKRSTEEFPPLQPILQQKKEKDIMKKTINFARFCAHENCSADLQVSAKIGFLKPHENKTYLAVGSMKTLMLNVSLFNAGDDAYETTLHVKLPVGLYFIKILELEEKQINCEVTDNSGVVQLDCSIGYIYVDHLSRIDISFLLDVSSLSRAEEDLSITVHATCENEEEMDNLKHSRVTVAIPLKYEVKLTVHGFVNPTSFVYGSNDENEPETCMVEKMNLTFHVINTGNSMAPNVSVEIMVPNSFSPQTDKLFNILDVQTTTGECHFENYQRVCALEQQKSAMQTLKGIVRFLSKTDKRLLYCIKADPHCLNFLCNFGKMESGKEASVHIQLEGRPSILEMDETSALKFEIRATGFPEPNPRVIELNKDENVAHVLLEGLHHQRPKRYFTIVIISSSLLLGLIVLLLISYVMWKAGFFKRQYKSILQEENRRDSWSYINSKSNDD
T1 sequence (P05556 21-798): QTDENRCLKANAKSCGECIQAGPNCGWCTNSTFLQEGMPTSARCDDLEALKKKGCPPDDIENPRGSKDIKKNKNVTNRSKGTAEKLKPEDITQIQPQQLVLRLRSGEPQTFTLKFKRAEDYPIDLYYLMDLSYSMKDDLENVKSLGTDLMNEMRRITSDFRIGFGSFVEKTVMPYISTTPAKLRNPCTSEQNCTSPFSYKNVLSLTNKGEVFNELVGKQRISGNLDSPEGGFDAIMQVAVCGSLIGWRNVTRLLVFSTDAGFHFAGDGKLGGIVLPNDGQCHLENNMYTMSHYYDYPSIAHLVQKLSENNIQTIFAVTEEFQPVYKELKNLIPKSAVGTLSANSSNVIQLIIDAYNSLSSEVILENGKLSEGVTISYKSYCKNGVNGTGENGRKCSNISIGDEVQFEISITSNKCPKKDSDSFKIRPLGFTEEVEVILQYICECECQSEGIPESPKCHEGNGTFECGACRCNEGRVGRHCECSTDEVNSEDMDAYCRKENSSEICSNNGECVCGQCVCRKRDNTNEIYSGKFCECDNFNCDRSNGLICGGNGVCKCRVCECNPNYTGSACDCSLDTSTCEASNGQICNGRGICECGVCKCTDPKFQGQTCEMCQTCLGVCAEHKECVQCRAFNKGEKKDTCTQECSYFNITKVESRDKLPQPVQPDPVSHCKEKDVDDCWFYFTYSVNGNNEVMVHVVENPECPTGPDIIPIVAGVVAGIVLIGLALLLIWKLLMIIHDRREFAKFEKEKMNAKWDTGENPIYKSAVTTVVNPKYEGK
Kind of assay: Ramos (VLA-4)/VCAM-1 Cell-Based Screening Assay (cell adhesion). The following applies: Calcein-AM labeled Ramos cells, VCAM-1 coated plates, 45 min at room temperature; read-out: IC50 in Ramos Cell Based Assay. From the text:
Calcein-AM was purchased from Molecular Probes Inc.
VLA-4 (α4β1 integrin) antagonist activity, defined as ability to compete with cell-surface VLA-4 for binding to immobilized VCAM-1, was quantitated using a Ramos-VCAM-1 cell adhesion assay. Ramos cells bearing cell-surface VLA-4, were labeled with a fluorescent dye (Calcein-AM) and allowed to bind VCAM-1 in the presence or absence of test compounds.
Initially, this entailed coating 96 well plates (Nunc Maxisorp) with recombinant human VCAM-1 (100 ng in 100 μl PBS), sealing each plate and allowing the plates to stand at 4° C for Å18 hr. The VCAM-coated plates were subsequently washed twice with 0.05% Tween-20 in PBS, and then blocked for 1hr (room temperature) with 200 μl of Blocking Buffer (1% BSA/0.02% thimerosal) to reduce non-specific binding. Following the incubation with Blocking Buffer, plates were inverted, blotted and the remaining buffer aspirated. Each plate was then washed with 300 μl PBS, inverted and the remaining PBS aspirated.
Test compounds were dissolved in 100% DMSO and then diluted 1:25 in VCAM Cell Adhesion Assay Buffer (4 mM CaCl2, 4 mM MgCl2 in 50 mM TRIS-HCl, pH 7.5) (final DMSO=4%). […] 100 μl/well of each dilution was added to the VCAM-coated plates, followed by 100 μl of Ramos cells (200,000 cells/well in 1% BSA/PBS). […] Plates were inverted to remove non-adherent cells, blotted and 300 μl/well PBS added. Plates were again inverted, blotted and the remaining buffer gently aspirated. 100 μl Lysis Buffer (0.1% SDS in 50 mM TRIS-HCl, pH 8.5) was added to each well and agitated for 2 min on a rotary shaking platform.
Regarding `CC(=O)NCCC1(C(=O)N[C@@H](Cc2ccc(N3C(=O)[C@@H](C)N(C(C)=O)C3c3ccc(Cl)cc3)cc2)C(=O)O)CCCC1` (mixture of isomers) [Example 350], the IC50 (commonly the concentration that inhibits the measured activity by half) was 13 nM.
Take `COc1ccc(C[C@@H]2C(=O)N(c3ccc(C[C@H](NC(=O)C4(CCNC(C)=O)CCCC4)C(=O)O)cc3)C(c3ccccc3)N2C(C)=O)cc1` (single isomer, unassigned) [Example 278]: the IC50 is 2 nM.
With `CCCC(=O)N1C(c2ccccc2)N(c2ccc(C[C@H](NC(=O)C3(CCNC(C)=O)CCCC3)C(=O)O)cc2)C(=O)[C@H]1Cc1ccc(OC)cc1` (single isomer, unassigned) [Example 280], the IC50 was 4.2 nM.
With `COc1ccc(C[C@@H]2C(=O)N(c3ccc(C[C@H](NC(=O)C4(CCNC(C)=O)CCCC4)C(=O)O)cc3)C(c3ccccc3)N2C(=O)COc2ccccc2)cc1` (single isomer, unassigned) [Example 284], the IC50 was 2.9 nM.
With `COc1ccc(C[C@@H]2C(=O)N(c3ccc(C[C@H](NC(=O)C4(CCNC(C)=O)CCCC4)C(=O)O)cc3)C(c3ccc(Cl)cc3)N2C(C)=O)cc1` (single isomer, unassigned) [Example 286], the IC50 was 24 nM.
With `COc1ccc(C[C@@H]2C(=O)N(c3ccc(C[C@H](NC(=O)C4(CCNC(C)=O)CCCC4)C(=O)O)cc3)C(CCc3ccccc3)N2C(C)=O)cc1` (single isomer, unassigned) [Example 293], the IC50 is 40 nM.
Regarding `CC(=O)NCCC1(C(=O)N[C@@H](Cc2ccc(N3C(=O)[C@@H](Cc4cccnc4)N(C(C)=O)C3c3ccccc3)cc2)C(=O)O)CCCC1` (single isomer, unassigned) [Example 299], the IC50 was 1.7 nM.
For `CC(=O)NCCC1(C(=O)N[C@@H](Cc2ccc(N3C(=O)[C@@H](Cc4ccccc4)N(C(C)=O)C3c3ccccc3)cc2)C(=O)O)CCCC1` (single isomer, unassigned) [Example 311], the IC50 was 3 nM.
In the case of `CCCC(=O)N1C(c2ccc(Cl)cc2)N(c2ccc(C[C@H](NC(=O)C3(CCNC(C)=O)CCCC3)C(=O)O)cc2)C(=O)[C@H]1Cc1ccccc1` (single isomer, unassigned) [Example 322], the IC50 is 5 nM.
For the compound `CCCC(=O)N1C(c2ccccc2)N(c2ccc(C[C@H](NC(=O)C3(CCNC(C)=O)CCCC3)C(=O)O)cc2)C(=O)[C@H]1C` (single isomer, unassigned) [Example 344], the IC50 is 19 nM.
On to `CCCC(=O)N1C(c2ccc(Cl)cc2)N(c2ccc(C[C@H](NC(=O)C3(CCNC(C)=O)CCCC3)C(=O)O)cc2)C(=O)[C@H]1C` (single isomer, unassigned) [Example 351], for which the IC50 was 13 nM.
The same measure, in the same setting: as for `COCCC1(C(=O)N[C@@H](Cc2ccc(NC(=O)c3c(Cl)cccc3Cl)cc2)C(=O)O)CCCC1` [Example 59], the figure is 13.5 nM; as for `COC(=O)NC(=O)NCCC1(C(=O)N[C@@H](Cc2ccc(NC(=O)c3c(Cl)cccc3Cl)cc2)C(=O)O)CCCC1` [Example 189], 130 nM.
Take `O=C(NCCC1(C(=O)N[C@@H](Cc2ccc(NC(=O)c3c(Cl)cccc3Cl)cc2)C(=O)O)CCCC1)Nc1ccccc1[N+](=O)[O-]` [Example 190]: the IC50 was 650 nM.
As to `O=C(NCCC1(C(=O)N[C@@H](Cc2ccc(NC(=O)c3c(Cl)cccc3Cl)cc2)C(=O)O)CCCC1)NCc1ccccc1` [Example 191], the IC50 was 322 nM.
In the case of `CSCCCCC1(C(=O)N[C@@H](Cc2ccc(NC(=O)c3c(Cl)cccc3Cl)cc2)C(=O)O)CCCC1` [Example 260], the IC50 is 130 nM.
Consider `[N-]=[N+]=NCCCCC1(C(=O)N[C@@H](Cc2ccc(NC(=O)c3c(Cl)cccc3Cl)cc2)C(=O)O)CCCC1` [Example 261], for which the IC50 was 184 nM.
Consider `CS(=O)(=O)CCCCC1(C(=O)N[C@@H](Cc2ccc(NC(=O)c3c(Cl)cccc3Cl)cc2)C(=O)O)CCCC1` [Example 263], for which the IC50 is 5 nM.
On to `CC(=O)NCCCC1(C(=O)N[C@@H](Cc2ccc(NC(=O)c3c(Cl)cccc3Cl)cc2)C(=O)O)CCCC1` [Example 276, N-[[1-(3-(Acetylamino)propyl]cyclopenyl]carbonyl]-4-[[(2,6-dichlorophenyl)carbonyl]amino]-L-phenylalanine], for which the IC50 was 22 nM.

The assay is the same for the next values; noted with them: Conc. 10 nM; Ramos cell adhesion to VCAM-1.
Turning to `CCCC(=O)N1C(Cc2ccc(OC)cc2)C(=O)N(c2ccc(CC(NC(=O)C3(CCNC(C)=O)CCCC3)C(=O)O)cc2)C1c1ccc(Cl)cc1` (single isomer, unassigned) [Example 288], the inhibition (as a rule, the change of the read-out against control, counted positive when it falls) at 0.01 µM worked out at 92%.
`COc1ccc(CC2C(=O)N(c3ccc(CC(NC(=O)C4(CCNC(C)=O)CCCC4)C(=O)O)cc3)C(c3ccc(Cl)cc3)N2C(=O)COc2ccccc2)cc1` (single isomer, unassigned) [Example 291] registered an inhibition at 0.01 µM of 48%.
As for `CCCC(=O)N1C(Cc2ccccc2)C(=O)N(c2ccc(CC(NC(=O)C3(CCNC(C)=O)CCCC3)C(=O)O)cc2)C1c1ccccc1` (single isomer, unassigned) [Example 313], 0.01 µM produced 68% inhibition.
As to `CC(=O)NCCC1(C(=O)NC(Cc2ccc(N3C(=O)C(Cc4ccccc4)N(C(=O)COc4ccccc4)C3c3ccccc3)cc2)C(=O)O)CCCC1` (single isomer, unassigned) [Example 317], the inhibition at 0.01 µM amounted to 17%.
Still for that read-out and setting: with `CC(=O)NCCC1(C(=O)NC(Cc2ccc(N3C(=O)C(Cc4ccccc4)N(C(C)=O)C3c3ccc(Cl)cc3)cc2)C(=O)O)CCCC1` (single isomer, unassigned) [Example 319] the figure was 68%.
Consider `CCCC(=O)N1C(Cc2ccccc2)C(=O)N(c2ccc(CC(NC(=O)C3(CCNC(C)=O)CCCC3)C(=O)O)cc2)C1c1ccc(Cl)cc1` (single isomer, unassigned) [Example 321], for which 0.01 µM produced 59% inhibition.
The same measure, in the same setting: as for `CC(=O)NCCC1(C(=O)NC(Cc2ccc(N3C(=O)C(C)N(C(C)=O)C3c3ccccc3)cc2)C(=O)O)CCCC1` (single isomer, unassigned) [Example 342], the figure is 24%; as for `CC(=O)NCCC1(C(=O)NC(Cc2ccc(N3C(=O)C(C)N(C(=O)COc4ccccc4)C3c3ccccc3)cc2)C(=O)O)CCCC1` (single isomer, unassigned) [Example 349], 58%; as for `CCCC(=O)N1C(Cc2cccnc2)C(=O)N(c2ccc(CC(NC(=O)C3(CCNC(C)=O)CCCC3)C(=O)O)cc2)C1c1ccccc1` (stereo not shown) [Example 300], 32%.
Turning to `CC(=O)NCCC1(C(=O)NC(Cc2ccc(N3C(=O)C(Cc4cccnc4)N(C(C)=O)C3c3ccc(Cl)cc3)cc2)C(=O)O)CCCC1` (stereo not shown) [Example 303], the inhibition at 0.01 µM was determined as 70%.
In turn, `CCCC(=O)N1C(Cc2cccnc2)C(=O)N(c2ccc(CC(NC(=O)C3(CCNC(C)=O)CCCC3)C(=O)O)cc2)C1c1ccc(Cl)cc1` (stereo not shown) [Example 304] displayed an inhibition at 0.01 µM of 35%.

The same assay, now with this note: IC50 in Ramos Cell Based Assay (nM), Calcein-AM labeled Ramos cells, VCAM-1 coated plates, 45 min at room temperature.
For the compound `CC(C)(C)C(=O)NCCC1(C(=O)N[C@@H](Cc2ccc(NC(=O)c3c(Cl)cccc3Cl)cc2)C(=O)O)CCCC1` [Example 156, 4-[[(2,6-dichlorophenyl)carbonyl]amino]-N-[[1-[2-[[N-(1,1-dimethylethyl)carbonyl]amino]ethyl]cyclopentyl]carbonyl]-L-phenylalanine], the IC50 was 28 nM.
With `NC(=O)NCCC1(C(=O)N[C@@H](Cc2ccc(NC(=O)c3c(Cl)cccc3Cl)cc2)C(=O)O)CCCC1` [Example 188], the IC50 was 36 nM.
On to `CSCCCCC1(C(=O)N[C@@H](Cc2ccc(NC(=O)c3c(Cl)cccc3Cl)cc2)C(=O)O)CCCC1` [Example 260], for which the IC50 is 94 nM.
As to `N#CCCCCC1(C(=O)N[C@@H](Cc2ccc(NC(=O)c3c(Cl)cccc3Cl)cc2)C(=O)O)CCCC1` [Example 262], the IC50 was 39 nM.
